Assay results from patent US20220117938A1, “COMBINATON THERAPY WITH A DON PRODRUG AND AN IMMUNE CHECKPOINT INHIBITOR” (DRACEN PHARMACEUTICALS, INC., priority 2019, published 2022).

Test system: CT26.WT tumors
Test: Anti-tumor efficacy of Compound 1 and Compound 1 in combination with anti-PD-1 in the CT26.WT syngeneic model (Example 10)
Assay type: in vivo, mice
Protocol: Female BALB/c mice were inoculated subcutaneously in the right flank with CT26.WT cells for tumor development. Six days after tumor inoculation, mice with tumor sizes ranging from 30-81 mm^3 (average tumor size 55 mm^3) were selected and assigned into 10 groups using stratified randomization with 8 mice per group based upon their tumor volumes. The treatments were started from the day of randomization (defined as D0), Group 1 was treated with Vehicle control, 10 mpk, SC, qd 5 days on (Mon-Fri)×4 cycles; Group 2 was treated with Anti-PD-1, 10 mpk, IP, q4d×6; Group 3 was treated with Compound 1, 1.4 mpk, SC, qd 5 days on (Mon-Fri)×4 cycles; Group 4 was treated with Compound 1+anti-PD-1, 1.4 mpk+10 mpk, SC, qd 5 days on (Mon-Fri)×4 cycles+IP, q4d×6; Group 5 was treated with Compound 1, 10.5 mpk, IV, biw (Mon, Thu)×4 cycles; Group 6 was treated with Compound 1+anti-PD-1, 10.5 mpk+10 mpk, IV, biw (Mon, Thu)×4 cycles+IP, q4d×6; Group 7 was treated with Compound 1, 7 mpk IV, tiw (Mon, Wed, Fri)×4 cycles; Group 8 was treated with Compound 1+anti-PD-1, 7 mpk+10 mpk, IV, tiw (Mon, Wed, Fri)×4 cycles+IP, q4d×6; Group 9 was treated with Compound 1, 7 mpk IV, tiw (Mon, Tue, Wed)×4 cycles; and Group 10 was treated with Compound 1+anti-PD-1, 7 mpk+10 mpk, IV, tiw (Mon, Tue, Wed)×4 cycles+IP, q4d×6. The tumor sizes were measured three times per week during the treatment. Survival was monitored with tumor volume exceeding 2000 mm^3 as endpoint. The entire study was terminated on D56 after start of the treatment. All treatments were well-tolerated without any adverse effects or significant body weight loss.

[1] = Group 3, 1.4 mpk SC qd Mon-Fri x4 cycles
[2] = Group 3, 1.4 mpk SC qd Mon-Fri x4 cycles, day 14
[3] = Group 5, 10.5 mpk IV biw x4 cycles
[4] = Group 5, 10.5 mpk IV biw x4 cycles, day 14
[5] = Group 7, 7 mpk IV tiw (Mon,Wed,Fri) x4 cycles
[6] = Group 7, 7 mpk IV tiw (Mon,Wed,Fri) x4 cycles, day 14
[7] = Group 9, 7 mpk IV tiw (Mon,Tue,Wed) x4 cycles
[8] = Group 9, 7 mpk IV tiw (Mon,Tue,Wed) x4 cycles, day 14

SMILES: CC(=O)N[C@@H](Cc1c[nH]c2ccccc12)C(=O)N[C@@H](CCC(=O)C=[N+]=[N-])C(=O)OC(C)C [Compound 1, Isopropyl (S)-2-((S)-2-acetamido-3-(1H-indol-3-yl)propanamido)-6-diazo-5-oxohexanoate]
- ILS [1]: 81.0%
- MST [1]: 38 days
- RTV at day 14 [1]: 3.07 ± 0.38
- Tumor Size at day 14 [1]: 172 ± 29 mm^3
- Tumor volume (Group 3, 1.4 mpk SC qd Mon-Fri x4 cycles, day 0): 56 ± 5 mm^3
- Tumor volume (Group 3, 1.4 mpk SC qd Mon-Fri x4 cycles, day 2): 59 ± 5 mm^3
- Tumor volume (Group 3, 1.4 mpk SC qd Mon-Fri x4 cycles, day 11): 103 ± 13 mm^3
- T/C [2]: 17.06%
- TGI [2]: 88.16%
- Tumor volume [2]: 172 ± 29 mm^3
- Tumor volume (Group 3, 1.4 mpk SC qd Mon-Fri x4 cycles, day 16): 163 ± 20 mm^3
- Tumor volume (Group 3, 1.4 mpk SC qd Mon-Fri x4 cycles, day 18): 191 ± 26 mm^3
- Tumor volume (Group 3, 1.4 mpk SC qd Mon-Fri x4 cycles, day 21): 258 ± 25 mm^3
- Tumor volume (Group 3, 1.4 mpk SC qd Mon-Fri x4 cycles, day 23): 276 ± 36 mm^3
- Tumor volume (Group 3, 1.4 mpk SC qd Mon-Fri x4 cycles, day 25): 278 ± 42 mm^3
- Tumor volume (Group 3, 1.4 mpk SC qd Mon-Fri x4 cycles, day 28): 466 ± 62 mm^3
- Tumor volume (Group 3, 1.4 mpk SC qd Mon-Fri x4 cycles, day 30): 682 ± 103 mm^3
- Tumor volume (Group 3, 1.4 mpk SC qd Mon-Fri x4 cycles, day 32): 1012 ± 189 mm^3
- Tumor volume (Group 3, 1.4 mpk SC qd Mon-Fri x4 cycles, day 35): 1417 ± 260 mm^3
- ILS [3]: 76.2%
- MST [3]: 37 days
- RTV at day 14 [3]: 3.21 ± 1.03
- Tumor Size at day 14 [3]: 170 ± 51 mm^3
- Tumor volume (Group 5, 10.5 mpk IV biw x4 cycles, day 0): 56 ± 5 mm^3
- Tumor volume (Group 5, 10.5 mpk IV biw x4 cycles, day 2): 52 ± 5 mm^3
- Tumor volume (Group 5, 10.5 mpk IV biw x4 cycles, day 11): 113 ± 24 mm^3
- T/C [4]: 17.83%
- TGI [4]: 88.39%
- Tumor volume [4]: 170 ± 51 mm^3
- Tumor volume (Group 5, 10.5 mpk IV biw x4 cycles, day 16): 214 ± 60 mm^3
- Tumor volume (Group 5, 10.5 mpk IV biw x4 cycles, day 18): 226 ± 59 mm^3
- Tumor volume (Group 5, 10.5 mpk IV biw x4 cycles, day 21): 381 ± 119 mm^3
- Tumor volume (Group 5, 10.5 mpk IV biw x4 cycles, day 23): 439 ± 128 mm^3
- Tumor volume (Group 5, 10.5 mpk IV biw x4 cycles, day 25): 562 ± 197 mm^3
- Tumor volume (Group 5, 10.5 mpk IV biw x4 cycles, day 28): 849 ± 264 mm^3
- ILS [5]: 76.2%
- MST [5]: 37 days
- RTV at day 14 [5]: 3.34 ± 0.97
- Tumor Size at day 14 [5]: 201 ± 67 mm^3
- Tumor volume (Group 7, 7 mpk IV tiw (Mon,Wed,Fri) x4 cycles, day 0): 55 ± 5 mm^3
- Tumor volume (Group 7, 7 mpk IV tiw (Mon,Wed,Fri) x4 cycles, day 2): 61 ± 9 mm^3
- Tumor volume (Group 7, 7 mpk IV tiw (Mon,Wed,Fri) x4 cycles, day 11): 111 ± 33 mm^3
- T/C [6]: 18.56%
- TGI [6]: 85.12%
- Tumor volume [6]: 201 ± 67 mm^3
- Tumor volume (Group 7, 7 mpk IV tiw (Mon,Wed,Fri) x4 cycles, day 16): 238 ± 94 mm^3
- Tumor volume (Group 7, 7 mpk IV tiw (Mon,Wed,Fri) x4 cycles, day 18): 256 ± 101 mm^3
- Tumor volume (Group 7, 7 mpk IV tiw (Mon,Wed,Fri) x4 cycles, day 21): 471 ± 261 mm^3
- ILS [7]: 92.9%
- MST [7]: 40.5 days
- RTV at day 14 [7]: 2.32 ± 0.84
- Tumor Size at day 14 [7]: 132 ± 46 mm^3
- Tumor volume (Group 9, 7 mpk IV tiw (Mon,Tue,Wed) x4 cycles, day 0): 56 ± 4 mm^3
- Tumor volume (Group 9, 7 mpk IV tiw (Mon,Tue,Wed) x4 cycles, day 11): 79 ± 19 mm^3
- T/C [8]: 12.89%
- TGI [8]: 92.20%
- Tumor volume [8]: 132 ± 46 mm^3
- Tumor volume (Group 9, 7 mpk IV tiw (Mon,Tue,Wed) x4 cycles, day 16): 131 ± 52 mm^3
- Tumor volume (Group 9, 7 mpk IV tiw (Mon,Tue,Wed) x4 cycles, day 18): 160 ± 65 mm^3
- Tumor volume (Group 9, 7 mpk IV tiw (Mon,Tue,Wed) x4 cycles, day 21): 248 ± 104 mm^3
- Tumor volume (Group 9, 7 mpk IV tiw (Mon,Tue,Wed) x4 cycles, day 23): 252 ± 103 mm^3
- Tumor volume (Group 9, 7 mpk IV tiw (Mon,Tue,Wed) x4 cycles, day 25): 255 ± 106 mm^3
- Tumor volume (Group 9, 7 mpk IV tiw (Mon,Tue,Wed) x4 cycles, day 28): 447 ± 186 mm^3
- Tumor volume (Group 9, 7 mpk IV tiw (Mon,Tue,Wed) x4 cycles, day 30): 695 ± 300 mm^3
